Data taken from patent US20200392116A1, “SUBSTITUTED HETEROCYCLES AS c-MYC TARGETING AGENTS” (NORTHWESTERN UNIVERSITY, priority 2019, published 2020).

Experiment: Potency code of Table 2 (assay not stated)

Q: Which Potency code does the source give for `Oc1c(-c2cc(C(F)(F)F)[nH]n2)ccc(OCc2ccc(Cl)cc2)c1-c1ccc(F)cc1` [NUCC-0196347] here?
A: + (>40 +)

Q: For `Cn1nc(C(F)(F)F)cc1-c1cnc(OCc2ccc(Cl)cc2)cn1` [NUCC-0200692], which Potency code is on record?
A: + (>40 +)

Q: For `C#CCCC(=O)NCCCOc1ccc(-c2cc(C(F)(F)F)n[nH]2)c(O)c1-c1ccc(Cl)c(C(F)(F)F)c1` [NUCC-0201659], which Potency code is on record?
A: + (>40 +)

Q: For `CCc1ccc(Oc2c(-c3ccc(OCc4ccc(Cl)cc4)cc3O)nn(C)c2CC)cc1` [NUCC-0196294], which Potency code is on record?
A: + (>40 +)

Q: For `Cn1nc(C(F)(F)F)cc1-c1ccc(OCCCNC(=O)COCCOCCOCCn2cc(COc3cccc4c3C(=O)N(C3CCC(=O)NC3=O)C4=O)nn2)c(-c2ccc(Cl)c(C(F)(F)F)c2)c1O` (centres unmarked) [NUCC-0201702], which Potency code is on record?
A: + (>40 +)

Q: For `COc1cccc(COc2ccc(-c3n[nH]cc3Oc3cc(C)ccc3C)c(O)c2)c1` [NUCC-0196288], which Potency code is on record?
A: + (>40 +)

Q: With `Cn1cc(Oc2ccccc2Cl)c(-c2ccc(OCc3ccc(Cl)cc3)cc2O)n1` [NUCC-0196305] as the compound, how does the Potency code read?
A: ++++ (<10 ++++)

Q: For `Cn1nc(C(F)(F)F)cc1-c1ccc(NCc2ccc(Cl)cc2)cn1` [NUCC-0200691], which Potency code is on record?
A: + (>40 +)

Q: For `Oc1cc(OCc2ccc(Cl)cc2)ccc1-c1cc(C(F)(F)F)n(Cc2ccccc2)n1` [NUCC-0200499], which Potency code is on record?
A: + (>40 +)

Q: For `Cn1ncc(-c2ccoc2)c1-c1ccc(OCc2ccc(Cl)cc2)cc1O` [NUCC-0198323], which Potency code is on record?
A: + (>40 +)

Q: For `CCc1ccc(Oc2c(-c3ccccc3O)nn(C)c2C(F)(F)F)cc1` [NUCC-0200684], which Potency code is on record?
A: + (>40 +)

Q: For `Cc1[nH]nc(-c2ccc(OCCc3ccc(Cl)cc3)cc2O)c1Oc1ccccc1` [NUCC-0176252], which Potency code is on record?
A: + (>40 +)

Q: With `Oc1cc(OCc2ccc(Cl)cc2)ccc1-c1n[nH]cc1-c1ccccc1` [NUCC-0198293] as the compound, how does the Potency code read?
A: + (>40 +)

Q: For `Cn1nc(C(F)(F)F)cc1-c1ccc(OCCCN)c(-c2ccc(Cl)c(C(F)(F)F)c2)c1O` [NUCC-0201642], which Potency code is on record?
A: + (>40 +)

Q: Which Potency code does the source give for `Cn1nc(C(F)(F)F)cc1-c1ccc(OCc2ccc(Cl)cc2)c(-c2ccccc2OC(F)(F)F)c1O` [NUCC-0198410] here?
A: + (>40 +)

Q: With `Cn1cc(-c2ccccc2)c(-c2ccc(OCc3ccc(Cl)cc3)cc2O)n1` [NUCC-0198294] as the compound, how does the Potency code read?
A: + (>40 +)

Q: With `NC(=O)c1ccc(-c2c(OCc3ccc(Cl)cc3)ccc(-c3cc(C(F)(F)F)[nH]n3)c2O)cc1` [NUCC-0198394] as the compound, how does the Potency code read?
A: ++ (30-40 ++)

Q: Which Potency code does the source give for `Cn1nc(C(F)(F)F)cc1-c1ccc(OCc2ccc(Cl)cc2)cc1N` [NUCC-0200745] here?
A: + (>40 +)

Q: Which Potency code does the source give for `N#Cc1cccc(-c2c(OCc3ccc(Cl)cc3)ccc(-c3cc(C(N)=O)[nH]n3)c2O)c1` [NUCC-0200557] here?
A: + (>40 +)

Q: Which Potency code does the source give for `Cn1nc(-c2ccc(OCc3ccc(Cl)cc3)c(-c3ccc(F)cc3)c2O)cc1C(F)(F)F` [NUCC-0196348] here?
A: +++ (10-30 +++)

Q: With `CN/N=C(/C)c1cccc(-c2c(OCc3ccc(Cl)cc3)ccc(-c3cc(C(F)(F)F)[nH]n3)c2O)c1` [NUCC-0198403] as the compound, how does the Potency code read?
A: + (>40 +)

Q: With `Cn1nc(-c2ccc(OCc3ccc(Cl)cc3)c(-c3ccc(C(F)(F)F)c(Cl)c3)c2O)cc1C(F)(F)F` [NUCC-0200729] as the compound, how does the Potency code read?
A: + (>40 +)

Q: Which Potency code does the source give for `COc1ccc(-c2c(-c3ccc(OCc4ccc(Cl)cc4)cc3O)nn(C)c2C(F)(F)F)cc1OC` [NUCC-0196311] here?
A: + (>40 +)

Q: With `Oc1cc(Nc2ccc(-n3ccnc3)cc2)ccc1-c1cc(C(F)(F)F)[nH]n1` [NUCC-0200569] as the compound, how does the Potency code read?
A: + (>40 +)

Q: For `CCCCCCOc1ccc(-c2cc(C(F)(F)F)nn2C)c(O)c1-c1cncc(C(F)(F)F)c1` [NUCC-0201205], which Potency code is on record?
A: ++++ (<10 ++++)

Q: With `Cn1nc(C(F)(F)F)cc1-c1ccc(OCc2ccc(Cl)cc2)cc1C#N` [NUCC-0200812] as the compound, how does the Potency code read?
A: + (>40 +)

Q: For `COc1cccc(-c2c(-c3ccc(OCc4ccc(Cl)cc4)cc3O)nn(C)c2C)c1` [NUCC-0198314], which Potency code is on record?
A: + (>40 +)

Q: Which Potency code does the source give for `COc1cccc(-c2c(-c3ccc(OCc4ccc(Cl)cc4)cc3O)nn(C)c2C(F)(F)F)c1` [NUCC-0198311] here?
A: + (>40 +)

Q: For `N#Cc1ccc(COc2ccc(-c3cc(C(F)(F)F)[nH]n3)c(O)c2-c2ccc(Cl)c(C(F)(F)F)c2)cc1` [NUCC-0201911], which Potency code is on record?
A: + (>40 +)

Q: Which Potency code does the source give for `Oc1cc(OCc2ccc(Cl)cc2)ccc1-c1cc(C(F)(F)F)nc(-c2cc(C(F)(F)F)cc(C(F)(F)F)c2)n1` [NUCC-0200501] here?
A: + (>40 +)

Q: Which Potency code does the source give for `Cc1ccccc1-c1cn(C)nc1-c1ccc(OCc2ccc(Cl)cc2)cc1O` [NUCC-0198356] here?
A: + (>40 +)

Q: For `CN1CCN(c2ccc(-c3cc(C(F)(F)F)n(C)n3)c(O)c2)CC1` [NUCC-0200568], which Potency code is on record?
A: + (>40 +)

Q: With `CN/N=C(/C)c1ccc(-c2c(OCc3ccc(Cl)cc3)ccc(-c3cc(C(F)(F)F)[nH]n3)c2O)cc1` [NUCC-0198395] as the compound, how does the Potency code read?
A: + (>40 +)

Q: For `CCCCCCOc1ccc(-c2cc(C(F)(F)F)n[nH]2)c(O)c1-c1cncc(C(F)(F)F)c1` [NUCC-0201192], which Potency code is on record?
A: +++ (10-30 +++)

Q: Which Potency code does the source give for `Cn1cc(-c2cn(C)nc2-c2ccc(OCc3ccc(Cl)cc3)cc2O)cn1` [NUCC-0198362] here?
A: + (>40 +)

Q: For `C#CCOc1cccc2c1C(=O)N(C1CCC(=O)NC1=O)C2=O` (centres unmarked) [NUCC-0201705], which Potency code is on record?
A: + (>40 +)

Q: With `CN/N=C(/C)c1ccc(-c2c(OCc3ccc(Cl)cc3)ccc(-c3cc(C(F)(F)F)nn3C)c2O)cc1` [NUCC-0198396] as the compound, how does the Potency code read?
A: + (>40 +)

Q: Which Potency code does the source give for `C#CCC(N=[N+]=[N-])C(=O)NCCCOc1ccc(-c2cc(C(F)(F)F)nn2C)c(O)c1-c1cncc(C(F)(F)F)c1` (centres unmarked) [NUCC-0201696] here?
A: ++ (30-40 ++)

Q: For `Cn1nc(C(F)(F)F)cc1-c1ccc(OCc2ccc(Cl)cc2)cc1F` [NUCC-0200977], which Potency code is on record?
A: + (>40 +)

Q: For `Cn1nc(-c2ccc(NCc3ccc(Cl)cc3)cc2O)cc1C(F)(F)F` [NUCC-0200494], which Potency code is on record?
A: + (>40 +)

Q: With `CCc1ccc(Oc2c[nH]nc2-c2ccc(OCCc3ccc(F)cc3)cc2O)cc1` [NUCC-0176258] as the compound, how does the Potency code read?
A: + (>40 +)

Q: Which Potency code does the source give for `Cc1ccccc1-c1c[nH]nc1-c1ccc(OCc2ccc(Cl)cc2)cc1O` [NUCC-0198355] here?
A: + (>40 +)

Q: With `Cn1nc(-c2ccc(OCCN3CCOCC3)cc2O)c(Oc2ccccc2Cl)c1C(F)(F)F` [NUCC-0196341] as the compound, how does the Potency code read?
A: + (>40 +)

Q: Which Potency code does the source give for `Cc1cc(C)cc(-c2cnn(C)c2-c2ccc(OCc3ccc(Cl)cc3)cc2O)c1` [NUCC-0198354] here?
A: + (>40 +)

Q: For `N#Cc1ccc(-c2c(OCc3ccc(Cl)cc3)ccc(-c3cc(C(F)(F)F)[nH]n3)c2O)cc1` [NUCC-0198391], which Potency code is on record?
A: ++++ (<10 ++++)

Q: Which Potency code does the source give for `Oc1cc(OCc2ccc(Cl)cc2)ccc1-c1cc(C(F)(F)F)nc(-c2ccc(F)cc2)n1` [NUCC-0200503] here?
A: + (>40 +)

Q: Which Potency code does the source give for `Cn1nc(C(F)(F)F)cc1-c1ccc(O)cn1` [NUCC-0200687] here?
A: + (>40 +)

Q: With `Oc1cc(OCc2ccc(Cl)cc2)ccc1-c1cc(C(F)(F)F)[nH]n1` [NUCC-0196313] as the compound, how does the Potency code read?
A: ++++ (<10 ++++)

Q: Which Potency code does the source give for `Cn1nc(-c2ccc(OCCCNC(=O)OC(C)(C)C)c(-c3ccc(Cl)c(C(F)(F)F)c3)c2O)cc1C(F)(F)F` [NUCC-0201658] here?
A: ++ (30-40 ++)

Q: For `Cc1cc(C)cc(-c2cn(C)nc2-c2ccc(OCc3ccc(Cl)cc3)cc2O)c1` [NUCC-0198353], which Potency code is on record?
A: + (>40 +)

Q: With `Oc1c(-c2cc(C(F)(F)F)n[nH]2)ccc(OCc2ccc(Cl)cc2)c1-c1cncc(F)c1` [NUCC-0201040] as the compound, how does the Potency code read?
A: +++ (10-30 +++)

Q: For `Cn1cc(-c2cc(C(F)(F)F)cc(C(F)(F)F)c2)c(-c2ccc(OCc3ccc(Cl)cc3)cc2O)n1` [NUCC-0198319], which Potency code is on record?
A: + (>40 +)

Q: With `Cn1nc(C(F)(F)F)cc1-c1ccc(OCc2ccc(Cl)cc2)c(-c2ccc(C#N)cc2)c1O` [NUCC-0198392] as the compound, how does the Potency code read?
A: + (>40 +)

Q: With `Cn1nc(-c2ccc(Nc3ccc(F)c(F)c3)cc2O)cc1C(F)(F)F` [NUCC-0200560] as the compound, how does the Potency code read?
A: + (>40 +)

Q: For `Cn1nc(-c2ccc(OCc3ccc(Cl)cc3)c(-c3ccc(F)c(C(F)(F)F)c3)c2O)cc1C(F)(F)F` [NUCC-0200736], which Potency code is on record?
A: + (>40 +)

Q: Which Potency code does the source give for `CCc1nn(C)c(-c2ccc(OCc3ccc(Cl)cc3)cc2O)c1-c1ccccc1` [NUCC-0198302] here?
A: + (>40 +)

Q: For `CCCCOc1ccc(-c2cc(C(F)(F)F)nn2C)c(O)c1-c1cncc(C(F)(F)F)c1` [NUCC-0201204], which Potency code is on record?
A: +++ (10-30 +++)

Q: Which Potency code does the source give for `Cn1nc(-c2ccc(Nc3ccc(Cl)cc3)cc2O)cc1C(F)(F)F` [NUCC-0200492] here?
A: +++ (10-30 +++)

Q: For `Cn1nc(C(F)(F)F)cc1-c1ccc(O)c(-c2cc(C(F)(F)F)cc(C(F)(F)F)c2)c1O` [NUCC-0200723], which Potency code is on record?
A: ++ (30-40 ++)

Q: Which Potency code does the source give for `COc1ccc(-c2cn(C)nc2-c2ccc(OCc3ccc(Cl)cc3)cc2O)cc1` [NUCC-0198305] here?
A: + (>40 +)

Q: For `Cn1nc(-c2ccc(OCc3ccc(Cl)cc3)c(-c3cncc(C#N)c3)c2O)cc1C(F)(F)F` [NUCC-0201633], which Potency code is on record?
A: + (>40 +)

Q: Which Potency code does the source give for `Cn1nc(-c2ccc(OCCc3ccc(Cl)cc3)c(-c3cc(C(F)(F)F)cc(C(F)(F)F)c3)c2O)cc1C(F)(F)F` [NUCC-0201026] here?
A: + (>40 +)

Q: Which Potency code does the source give for `Oc1ccc(OCc2ccc(Cl)cc2)cc1-c1cc(C(F)(F)F)n[nH]1` [NUCC-0200573] here?
A: + (>40 +)

Q: For `Oc1cc(OCc2ccccc2)ccc1-c1n[nH]cc1Oc1ccccc1` [NUCC-0176255], which Potency code is on record?
A: + (>40 +)

Q: With `Cn1nc(C(F)(F)F)cc1-c1ccc(OCCCNC(=O)COCCOCCOCCn2cc(COc3cccc4c3C(=O)N(C3CCC(=O)NC3=O)C4=O)nn2)c(-c2cncc(C(F)(F)F)c2)c1O` (centres unmarked) [NUCC-0201703] as the compound, how does the Potency code read?
A: + (>40 +)

Q: With `Cn1cc(-c2ccc(OCc3ccc(Cl)cc3)cc2F)c(C(F)(F)F)n1` [NUCC-0200743] as the compound, how does the Potency code read?
A: + (>40 +)

Q: With `CN/N=C(/C)c1ccc(-c2c(OCc3ccc(Cl)cc3)ccc(-c3cc(C(F)(F)F)n(C)n3)c2O)cc1` [NUCC-0198397] as the compound, how does the Potency code read?
A: + (>40 +)

Q: For `C#CCC(N=[N+]=[N-])C(=O)NCCCOc1ccc(-c2cc(C(F)(F)F)nn2C)c(O)c1-c1ccc(Cl)c(C(F)(F)F)c1` (centres unmarked) [NUCC-0201695], which Potency code is on record?
A: + (>40 +)
